Results reported in patent publication US20230339915A1 (Vertex Pharmaceuticals Incorporated, priority 2020, published 2023).

Legend:
[1] = molecular target: NL20 human bronchial epithelial cells expressing human Z-AAT (Homo sapiens (Human), UniProt P01009, E366K); assay: AAT Function Assay (MSD Assay NL20-SI Cell Line); assay type: cell-based; conditions: functionally active AAT (AAT-hNE complex, MSD) in supernatant of NL20 cells expressing human Z-AAT; read-out: NL20 Functional EC50
Summary of the method: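 NL20 bronchial epithelial cells expressing Z-AAT, induced with 0.1 μM doxycycline, were treated with compound overnight. Functional AAT in supernatant was measured by complex formation with excess human neutrophil elastase, captured on anti-AAT plates, detected with Sulfo-tagged anti-elastase on MSD, and quantified against M-AAT standards (0.156–320 ng/mL).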

[2] = molecular target: purified Z-AAT protein from human plasma (Homo sapiens (Human), UniProt P01009, E366K); assay: Biochemical Assay (Z-AAT Elastase Activity Assay); conditions: purified Z-AAT pre-incubated with compound 1 hour, then human neutrophil elastase and fluorescent substrate
purified Z-AAT protein from human plasma, sequence (P01009 25-418 E366K limits assumed): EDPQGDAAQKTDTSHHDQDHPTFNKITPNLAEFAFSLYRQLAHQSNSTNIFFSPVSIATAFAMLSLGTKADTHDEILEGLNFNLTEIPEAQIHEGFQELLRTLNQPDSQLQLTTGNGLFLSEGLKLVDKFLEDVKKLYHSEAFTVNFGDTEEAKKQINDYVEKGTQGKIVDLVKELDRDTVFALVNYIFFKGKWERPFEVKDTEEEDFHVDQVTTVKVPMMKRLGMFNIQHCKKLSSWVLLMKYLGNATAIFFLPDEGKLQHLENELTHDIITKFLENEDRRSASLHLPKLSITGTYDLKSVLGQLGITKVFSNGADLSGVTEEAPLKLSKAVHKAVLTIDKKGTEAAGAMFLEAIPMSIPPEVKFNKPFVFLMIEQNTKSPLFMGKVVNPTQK
Summary of the method: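 Purified plasma Z-AAT (20 nM) preincubated with compounds 1 h at room temperature, then 3 nM human neutrophil elastase added in PBS + 0.01% BRIJ35 for 30 min to form suicide complex. Residual elastase activity read immediately by fluorescence after adding 300 μM MeOSuc-AAPV-AMC substrate solution.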

NL20 human bronchial epithelial cells expressing human Z-AAT, sequence (P01009 25-418 E366K limits assumed): as above

EC50 [1] | IC50 [2] | Compound
> 2000 nM | > 30000 nM | CC(C)c1c([C@H]2C[C@@H](C(=O)O)C2)c2cc(O)ccc2n1-c1ccc(F)c(F)c1 [Compound 142, cis-3-(1-(3,4-difluorophenyl)-5-hydroxy-2-isopropyl-1H-indol-3-yl)cyclobutane-1-carboxylic acid]
> 2000 nM | > 30000 nM | Cc1cc(-n2c(C3CCOCC3)c([C@H]3C[C@@H](C(=O)O)C3)c3cc(O)ccc32)ccn1 [Compound 143]
> 2000 nM | > 30000 nM | Cc1cc(-n2c(C(C)C)c([C@H]3C[C@@H](C(=O)O)C3)c3cc(O)ccc32)ccn1 [Compound 144]
500 to 2000 nM | > 5000 nM | Cc1cc(-n2c(C(C)C)c([C@H]3C[C@H](C(=O)O)C3)c3cc(O)ccc32)ccc1F [Compound 145]
500 to 2000 nM | > 30000 nM | Cc1cc(-n2c(C(C)C)c([C@H]3C[C@@H](C(=O)O)C3)c3cc(O)ccc32)ccc1F [Compound 146]
> 2000 nM | > 30000 nM | Cc1cc(-n2c(C(C)C)c(C3CN(CC(=O)O)C3)c3cc(O)ccc32)ccc1F [Compound 147]
< 500 nM | < 2000 nM | Cc1cc(-n2c(C(C)C)c(C3CC4(C3)CC(F)(C(=O)O)C4)c3cc(O)ccc32)ccc1F (stereo not shown) [Compound 148, 2-fluoro-6-(1-(4-fluoro-3-methylphenyl)-5-hydroxy-2-isopropyl-1H-indol-3-yl)spiro[3.3]heptane-2-carboxylic acid]
500 to 2000 nM | 2000 to 5000 nM | Cc1cc(-n2c(C(C)C)c(C3CC4(C3)CC(F)(C(=O)O)C4)c3cc(O)ccc32)ccc1F (stereo not shown) [Compound 149, 2-fluoro-6-(1-(4-fluoro-3-methylphenyl)-5-hydroxy-2-isopropyl-1H-indol-3-yl)spiro[3.3]heptane-2-carboxylic acid]
> 2000 nM | > 30000 nM | COC(C)(Cc1c(C(C)C)n(-c2ccc(F)c(C)c2)c2ccc(O)cc12)C(=O)O (stereo not shown) [Compound 151, 3-(1-(4-fluoro-3-methylphenyl)-5-hydroxy-2-isopropyl-1H-indol-3-yl)-2-methoxy-2-methylpropanoic acid]
> 2000 nM | > 30000 nM | Cc1cc(-n2c(C(C)C)c(CC(C)(O)C(=O)O)c3cc(O)ccc32)ccc1F (stereo not shown) [Compound 152, 3-[1-(4-fluoro-3-methyl-phenyl)-5-hydroxy-2-isopropyl-indol-3-yl]-2-hydroxy-2-methyl-propanoic acid]
> 2000 nM | > 30000 nM | Cc1cc(-n2c(C(C)C)c(CC(=O)O)c3cc(O)ccc32)ccc1F [Compound 153, 2-(1-(4-fluoro-3-methylphenyl)-5-hydroxy-2-isopropyl-1H-indol-3-yl)acetic acid]
> 2000 nM | > 30000 nM | Cc1cc(-n2c(C3CC3)c(C(Cc3ccccc3)C(=O)O)c3cc(O)ccc32)ccc1F (stereo not shown) [Compound 156, 2-(2-cyclopropyl-1-(4-fluoro-3-methylphenyl)-5-hydroxy-1H-indol-3-yl)-3-phenylpropanoic acid]
> 2000 nM | > 30000 nM | CCC(C(=O)O)c1c(C)n(-c2ccc(F)c(C)c2)c2ccc(O)cc12 (stereo not shown) [Compound 158]
> 2000 nM | > 30000 nM | Cc1cc(-n2c(C)c(C(C)C(=O)O)c3cc(O)ccc32)ccc1F (stereo not shown) [Compound 159]
> 2000 nM | > 30000 nM | Cc1cc(-n2c(C3CC3)c(CC(=O)O)c3cc(O)ccc32)ccc1F [Compound 160]
> 2000 nM | > 30000 nM | Cc1cc(-n2c(C)c(CC(=O)O)c3cc(O)ccc32)ccn1 [Compound 161]
> 2000 nM | > 30000 nM | Cc1cc(-n2c(C)c(CC(=O)O)c3cc(O)ccc32)ccc1F [Compound 162]
< 500 nM | > 30000 nM | Cc1cc(-n2c(C(C)C)c(CCC(=O)O)c3cc(O)c(F)cc32)ccc1F [Compound 163, 3-(6-fluoro-1-(4-fluoro-3-methylphenyl)-5-hydroxy-2-isopropyl-1H-indol-3-yl)propanoic acid]
< 500 nM | < 2000 nM | COCC(C)(C)c1c(-c2ccc(C(=O)O)cc2)c2cc(O)ccc2n1-c1ccc(F)cc1 [Compound 164, 4-(1-(4-fluorophenyl)-5-hydroxy-2-(1-methoxy-2-methylpropan-2-yl)-1H-indol-3-yl)benzoic acid]
500 to 2000 nM | < 2000 nM | CC(C)(CC#N)c1c(-c2ccc(C(=O)O)cc2)c2cc(O)ccc2n1-c1ccc(F)cc1 [Compound 165, 4-(2-(1-cyano-2-methylpropan-2-yl)-1-(4-fluorophenyl)-5-hydroxy-1H-indol-3-yl)benzoic acid]
> 2000 nM | > 30000 nM | Cc1cc(-n2c(C3CCOCC3)c(-c3ccc(C(=O)O)cc3)c3cc(O)ccc32)ccc1F [Compound 166, 4-(1-(4-fluoro-3-methylphenyl)-5-hydroxy-2-(tetrahydro-2H-pyran-4-yl)-1H-indol-3-yl)benzoic acid]
< 500 nM | 2000 to 5000 nM | Cc1cc(-n2c(C(C)C)c(-c3cccc(C(=O)O)c3)c3cc(O)ccc32)ccc1F [Compound 168]

EC50 [1] | IC50 [2] | Compound
> 2000 nM | > 30000 nM | Cc1cc(-n2c(C(C)C)c(-c3ccccc3C(=O)O)c3cc(O)ccc32)ccc1F [Compound 169]
500 to 2000 nM | 2000 to 5000 nM | Cc1cc(-n2c(C(C)C)c(-c3cncc(C(=O)O)c3)c3cc(O)ccc32)ccc1F [Compound 172]
> 2000 nM | > 30000 nM | Cc1nccc(-n2c(C(C)C)c(-c3ccc(C(=O)O)cc3)c3cc(O)ccc32)n1 [Compound 174]
500 to 2000 nM | > 30000 nM | Cc1cc(-n2c(C#N)c(-c3ccc(C(=O)O)cc3)c3cc(O)ccc32)ccc1F [Compound 175]
500 to 2000 nM | > 30000 nM | Cc1cc(-n2c(C(C)C)c(C(C)CC(=O)O)c3cc(O)ccc32)ccc1F (stereo not shown) [Compound 176]
< 500 nM | < 2000 nM | COCC(C)(C)c1c(-c2ccc(C(=O)O)cc2)c2cc(O)c(Cl)cc2n1-c1ccc(F)cc1 [Compound 177, 4-(6-chloro-1-(4-fluorophenyl)-5-hydroxy-2-(1-methoxy-2-methylpropan-2-yl)-1H-indol-3-yl)benzoic acid]
< 500 nM | < 2000 nM | COCC(C)(C)c1c(-c2ccc(C(=O)O)cc2)c2c(Cl)c(O)ccc2n1-c1ccc(F)cc1 [Compound 178, 4-[4-chloro-1-(4-fluorophenyl)-5-hydroxy-2-(2-methoxy-1,1-dimethyl-ethyl)indol-3-yl]benzoic acid]
> 2000 nM | > 30000 nM | Cc1cc(-n2c(C(C)C)c(-c3cc(C(=O)O)[nH]n3)c3cc(O)ccc32)ccc1F [Compound 179, 3-[1-(4-fluoro-3-methyl-phenyl)-5-hydroxy-2-isopropyl-indol-3-yl]-1H-pyrazole-5-carboxylic acid]
> 2000 nM | > 30000 nM | CC(C)c1c(-c2cccc(C(=O)O)c2)c2cc(O)ccc2n1C1CC(F)(F)C1 [Compound 180, 3-(1-(3,3-difluorocyclobutyl)-5-hydroxy-2-isopropyl-1H-indol-3-yl)benzoic acid]
> 2000 nM | > 5000 nM | Cc1cc(-n2c(C(C)C)c(/C=C/C(=O)O)c3cc(O)c(F)cc32)ccc1F [Compound 181, (E)-3-(6-fluoro-1-(4-fluoro-3-methylphenyl)-5-hydroxy-2-isopropyl-1H-indol-3-yl)acrylic acid]
> 2000 nM | > 5000 nM | Cc1c(C2(C#N)CC2)c2cc(O)ccc2n1-c1ccc(F)cc1 [Compound 184, 1-(1-(4-fluorophenyl)-5-hydroxy-2-methyl-1H-indol-3-yl)cyclopropane-1-carbonitrile]
< 500 nM | > 30000 nM | CC(C)c1c(C#N)c2cc(O)ccc2n1-c1ccc(F)cc1 [Compound 185, 1-(4-fluorophenyl)-5-hydroxy-2-isopropyl-1H-indole-3-carbonitrile]
< 500 nM | > 5000 nM | CC(C)(C)c1c(C#N)c2cc(O)ccc2n1-c1ccc(F)cc1 [Compound 186]
500 to 2000 nM | > 30000 nM | Cc1cc(-n2c(C(C)C)c(C#N)c3cc(O)ccc32)ccc1F [Compound 187]
500 to 2000 nM | > 30000 nM | N#Cc1c(C2CCC2)n(-c2ccc(F)cc2)c2ccc(O)cc12 [Compound 188]
> 2000 nM | > 30000 nM | C/C=C/c1c(C#N)c2cc(O)ccc2n1-c1ccc(F)cc1 [Compound 191, 1-(4-fluorophenyl)-5-hydroxy-2-[(E)-prop-1-enyl]indole-3-carbonitrile]
> 2000 nM | > 30000 nM | CCC(O)c1c(C#N)c2cc(O)ccc2n1-c1ccnc(C)c1 (stereo not shown) [Compound 192, 5-hydroxy-2-(I-hydroxypropyl)-1-(2-methylpyridin-4-yl)-1H-indole-3-carbonitrile]
500 to 2000 nM | > 30000 nM | Cc1cc(-n2c(C(C)C)c(C#N)c3cc(O)c(F)cc32)ccc1F [Compound 193, 6-fluoro-1-(4-fluoro-3-methylphenyl)-5-hydroxy-2-isopropyl-1H-indole-3-carbonitrile]
500 to 2000 nM | > 30000 nM | N#Cc1c(C2CCOCC2)n(-c2ccc(F)cc2)c2ccc(O)cc12 [Compound 194, 1-(4-fluorophenyl)-5-hydroxy-2-(tetrahydro-2H-pyran-4-yl)-1H-indole-3-carbonitrile]
> 2000 nM | > 30000 nM | CC(C)(C)OC(=O)N1CC(c2c(C#N)c3cc(O)ccc3n2-c2ccc(F)cc2)C1 [Compound 195]
> 2000 nM | > 30000 nM | N#Cc1c(C2CNC2)n(-c2ccc(F)cc2)c2ccc(O)cc12 [Compound 196]
500 to 2000 nM | > 30000 nM | N#Cc1c(C2CCC2)n(-c2ccccc2)c2ccc(O)cc12 [Compound 197]
